Experimental data as given in US20080214582A1, “Purine Derivatives as Inhibitors of Receptor Tyrosine Kinase Activity” (priority 2005, published 2008).

Columns and labels:
Tie-2 kinase = Tie-2 kinase (Homo sapiens, UniProt Q02763); experiment: Tie-2 kinase inhibition (flashplate, poly(Glu,Tyr), 33P-ATP); assay type: biochemical
Method: The TIE-2 tests can be carried out, for example, analogously to the methods indicated in WO 02/44156.
The assay determines the inhibiting activity of the substances to be tested in the phosphorylation of the substrate poly(Glu, Tyr) by Tie-2 kinase in the presence of radioactive ^33P-ATP. The phosphorylated substrate binds to the surface of a “flashplate” microtitre plate during the incubation time. After removal of the reaction mixture, the microtitre plate is washed a number of times and the radioactivity on its surface is subsequently measured. An inhibiting effect of the substances to be measured results in lower radioactivity compared with an undisturbed enzymatic reaction.

VEGFR (KDR) = molecular target: T1, VEGFR (KDR) (Homo sapiens, UniProt P35968); experiment: VEGF receptor kinase assay (pEY substrate, 33P incorporation); assay type: biochemical; conditions: kinase inhibition
T1 construct: cloning the cytoplasmic domain of the KDR kinase as an in frame fusion at the carboxyl terminus of the GST gene; made in house; host or cells: Spodoptera frugiperda Sf21 insect cells, baculovirus vector pAcG2T
Method: VEGF receptor kinase activity is measured by incorporation of radiolabelled phosphate into 4:1 polyglutamic acid/tyrosine substrate (pEY). The phosphorylated pEY product is trapped on a filter membrane and the incorporation of radiolabelled phosphate is quantified by scintillation counting.
The intracellular tyrosine kinase domains of human KDR (Terman, B. I. et al. Oncogene (1991) Vol. 6, pp. 1677-1683.) and Flt-1 (Shibuya, M. et al. Oncogene (1990) Vol. 5, pp. 519-524) were cloned as glutathione S-transferase (GST) gene fusion proteins. This was accomplished by cloning the cytoplasmic domain of the KDR kinase as an in frame fusion at the carboxyl terminus of the GST gene. Soluble recombinant GST-kinase domain fusion proteins were expressed in Spodoptera frugiperda (Sf21) insect cells (Invitrogen) using a baculovirus expression vector (pAcG2T, Pharmingen).
1. Sf21 cells were infected with recombinant virus at a multiplicity of infection of 5 virus particles/cell and grown at 27° C. for 48 hours. 2. All steps were performed at 4° C. Infected cells were harvested by centrifugation at 1000×g and lysed at 4° C. for 30 minutes with 1/10 volume of lysis buffer followed by centrifugation at 100000×g for 1 hour. The supernatant was then passed over a glutathione Sepharose acid (Pharmacia) equilibrated with lysis buffer and washed with 5 volumes of the same buffer followed by 5 volumes of wash buffer. Recombinant GST-KDR protein was eluted with wash buffer/10 mM reduced glutathione (Sigma) and dialysed against dialysis buffer.
1. Add 5 μl of inhibitor or control to the assay in 50% DMSO. 2. Add 35 μl of reaction mixture containing 5 μl of 10× reaction buffer, 5 μl of 25 mM ATP/10 μCi[^33P]ATP (Amersham) and 5 μl of 10× substrate. 3. Start the reaction by the addition of 10 μl of KDR (25 nM) in enzyme dilution buffer. 4. Mix and incubate at room temperature for 15 minutes. 5. Stop the reaction by the addition of 50 μl of stop solution. 6. Incubate at 4° C. for 15 minutes. 7. Transfer a 90 μl aliquot to filter plate. 8. Aspirate and wash 3 times with wash solution. 9. Add 30 μl of scintillation cocktail, seal plate and count in a Wallace Microbeta scintillation counter.

Chain of Tie-2 kinase (Q02763 23-1124): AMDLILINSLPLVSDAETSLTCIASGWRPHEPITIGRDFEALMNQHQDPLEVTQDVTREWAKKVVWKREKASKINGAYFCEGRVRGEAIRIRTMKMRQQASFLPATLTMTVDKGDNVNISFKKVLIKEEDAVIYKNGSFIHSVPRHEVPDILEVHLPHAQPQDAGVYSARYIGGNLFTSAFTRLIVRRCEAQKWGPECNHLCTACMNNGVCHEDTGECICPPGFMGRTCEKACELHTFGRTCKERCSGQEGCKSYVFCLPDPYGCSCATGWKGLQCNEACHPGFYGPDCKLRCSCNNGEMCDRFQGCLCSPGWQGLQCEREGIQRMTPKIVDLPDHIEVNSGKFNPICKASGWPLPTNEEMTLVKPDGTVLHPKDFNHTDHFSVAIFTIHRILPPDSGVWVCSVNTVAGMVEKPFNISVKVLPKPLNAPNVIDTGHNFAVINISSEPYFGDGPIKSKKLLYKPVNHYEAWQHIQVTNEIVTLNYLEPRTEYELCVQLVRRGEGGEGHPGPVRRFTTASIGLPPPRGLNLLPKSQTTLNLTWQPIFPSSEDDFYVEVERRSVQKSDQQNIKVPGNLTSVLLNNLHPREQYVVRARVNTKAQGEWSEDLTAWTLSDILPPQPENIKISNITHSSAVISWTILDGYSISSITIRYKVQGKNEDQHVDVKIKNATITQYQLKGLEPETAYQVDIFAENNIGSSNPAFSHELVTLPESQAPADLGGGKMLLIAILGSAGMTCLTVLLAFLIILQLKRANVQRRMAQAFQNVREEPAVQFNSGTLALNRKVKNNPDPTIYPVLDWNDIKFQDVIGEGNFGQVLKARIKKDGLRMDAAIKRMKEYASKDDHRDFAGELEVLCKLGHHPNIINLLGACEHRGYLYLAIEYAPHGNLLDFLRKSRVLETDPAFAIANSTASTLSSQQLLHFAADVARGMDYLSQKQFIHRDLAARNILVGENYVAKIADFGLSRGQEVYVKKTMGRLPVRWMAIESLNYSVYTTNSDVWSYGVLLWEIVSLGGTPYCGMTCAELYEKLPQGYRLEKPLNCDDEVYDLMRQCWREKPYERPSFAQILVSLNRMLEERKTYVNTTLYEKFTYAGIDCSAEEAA
T1 sequence (P35968 786-1356 limits assumed): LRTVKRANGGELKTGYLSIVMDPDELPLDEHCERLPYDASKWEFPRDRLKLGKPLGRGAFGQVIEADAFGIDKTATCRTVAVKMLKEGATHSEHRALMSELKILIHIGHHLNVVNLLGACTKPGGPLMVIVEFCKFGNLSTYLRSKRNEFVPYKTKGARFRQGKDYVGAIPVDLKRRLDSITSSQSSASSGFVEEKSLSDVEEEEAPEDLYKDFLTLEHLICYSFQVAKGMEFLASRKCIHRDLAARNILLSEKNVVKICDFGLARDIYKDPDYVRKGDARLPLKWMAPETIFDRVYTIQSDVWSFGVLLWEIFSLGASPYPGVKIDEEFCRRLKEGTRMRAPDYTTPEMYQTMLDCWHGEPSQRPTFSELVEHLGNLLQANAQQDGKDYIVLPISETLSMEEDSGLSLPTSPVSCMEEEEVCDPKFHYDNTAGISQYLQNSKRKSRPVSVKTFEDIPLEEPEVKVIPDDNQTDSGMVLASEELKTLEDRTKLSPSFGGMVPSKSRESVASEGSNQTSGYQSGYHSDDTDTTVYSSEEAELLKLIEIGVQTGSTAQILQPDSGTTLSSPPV

SMILES	IC50 (Tie-2 kinase)	IC50 (VEGFR (KDR))
Nc1ncnc2c1ncn2-c1ccc(NC(=O)Nc2cccc(C(F)(F)F)c2)cc1 [Compound 2, 1-[4-(6-aminopurin-9-yl)phenyl]-3-(3-trifluoromethylphenyl)urea]	14 nM	3.6 nM
Nc1ncnc2c1ncn2-c1ccc(NC(=O)Nc2cc(C(F)(F)F)ccc2F)cc1 [Compound 4, 1-[4-(6-aminopurin-9-yl)phenyl]-3-(2-fluoro-5-trifluoromethylphenyl)urea]	49 nM	5.7 nM
Nc1ncnc2c1ncn2-c1ccc(NC(=O)Nc2ccc(OC3CCNC3)c(C(F)(F)F)c2)cc1 (stereo not shown) [Compound 11, 1-[4-(6-aminopurin-9-yl)phenyl]-3-[4-(pyrrolidin-3-yloxy)-3-trifluoromethylphenyl]urea]	110 nM	4.4 nM
Nc1ncnc2c1ncn2-c1ccc(NC(=O)Nc2cc(C(F)(F)F)ccc2-n2cncn2)cc1 [Compound 9, 1-[4-(6-aminopurin-9-yl)phenyl]-3-(2-[1,2,4]triazol-1-yl-5-trifluoromethylphenyl)urea]	12.5 nM	7.7 nM
Nc1ncnc2c1ncn2-c1ccc(NC(=O)Nc2cccc(OC(F)(F)F)c2)cc1 [Compound 5, 1-[4-(6-aminopurin-9-yl)phenyl]-3-(3-trifluoromethoxyphenyl)urea]	35 nM	5 nM

Further compounds by falling IC50 (Tie-2 kinase), results first:

IC50 (Tie-2 kinase)	IC50 (VEGFR (KDR))	SMILES
100 nM	4.6 nM	Nc1ncnc2c1ncn2-c1ccc(NC(=O)Nc2cc(C(F)(F)F)ccn2)cc1 [Compound 6, 1-[4-(6-aminopurin-9-yl)phenyl]-3-(4-trifluoromethylpyridin-2-yl)urea]
34.3 nM	88 nM	Nc1ncnc2c1ncn2-c1ccc(NC(=O)Nc2cc(C(F)(F)F)ccc2OC2CCNC2)cc1 (stereo not shown) [Compound 1, 1-[4-(6-aminopurin-9-yl)phenyl]-3-[2-(pyrrolidin-3-yloxy)-5-trifluoromethylphenyl]urea]
19.5 nM	2 nM	CC(C)(C)c1cc(NC(=O)Nc2ccc(-n3cnc4c(N)ncnc43)cc2)no1 [Compound 15, 1-[4-(6-aminopurin-9-yl)phenyl]-3-(5-tert-butylisoxazol-3-yl)urea]
